Measured values from PubChem BioAssay AID2060886 (Molecular Pharmacology Branch, DTP, NCI, 2025).

Tested on: 653999-131-R-J2-PDC complex spheroids, growth inhibition
Experiment: Anticancer human tumor 653999-131-R-J2-PDC patient-derived lung adenocarcinoma cell line growth inhibition [RAS]
Conditions: for IC50: curve of first compound; for viability, T/C: stronger effect = lower value
In short: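 Multi-cell-type spheroids: tumor cells plus HUVEC endothelial cells and mesenchymal stem cells. RAS-pathway inhibitors were combined with targeted agents, each dosed in half-log steps down from clinical Cmax, or from 10 microM when Cmax was unknown.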

[1] = second compound 0.000949 µM, first compound 0.0316 µM
[2] = second compound 0.000949 µM, first compound 0.1 µM
[3] = second compound 0.000949 µM, first compound 0.316 µM
[4] = second compound 0.000949 µM, first compound 1 µM
[5] = second compound 0.000949 µM, first compound 3.16 µM
[6] = second compound 0.000949 µM, first compound 10 µM
[7] = second compound 0.003 µM, first compound 0.0316 µM
[8] = second compound 0.003 µM, first compound 0.1 µM
[9] = second compound 0.003 µM, first compound 0.316 µM
[10] = second compound 0.003 µM, first compound 1 µM
[11] = second compound 0.003 µM, first compound 3.16 µM
[12] = second compound 0.003 µM, first compound 10 µM
[13] = second compound 0.00949 µM, first compound 0.0316 µM
[14] = second compound 0.00949 µM, first compound 0.1 µM
[15] = second compound 0.00949 µM, first compound 0.316 µM
[16] = second compound 0.00949 µM, first compound 1 µM
[17] = second compound 0.00949 µM, first compound 3.16 µM
[18] = second compound 0.00949 µM, first compound 10 µM
[19] = second compound 0.03 µM, first compound 0.0316 µM
[20] = second compound 0.03 µM, first compound 0.1 µM
[21] = second compound 0.03 µM, first compound 0.316 µM
[22] = second compound 0.03 µM, first compound 1 µM
[23] = second compound 0.03 µM, first compound 3.16 µM
[24] = second compound 0.03 µM, first compound 10 µM
[25] = second compound 0.0949 µM, first compound 0.0316 µM
[26] = second compound 0.0949 µM, first compound 0.1 µM
[27] = second compound 0.0949 µM, first compound 0.316 µM
[28] = second compound 0.0949 µM, first compound 1 µM
[29] = second compound 0.0949 µM, first compound 3.16 µM
[30] = second compound 0.0949 µM, first compound 10 µM
[31] = second compound 0.3 µM, first compound 0.0316 µM
[32] = second compound 0.3 µM, first compound 0.1 µM
[33] = second compound 0.3 µM, first compound 0.316 µM
[34] = second compound 0.3 µM, first compound 1 µM
[35] = second compound 0.3 µM, first compound 3.16 µM
[36] = second compound 0.3 µM, first compound 10 µM
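Also: spheroids exposed to the agents for seven days before the readout.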

In the case of `NC1c2ccccc2OC12CCN(c1cnc3c(N4CCCc5ncccc54)n[nH]c3n1)CC2` (stereo unspecified) + CCn1c(-c2cccnc2C(C)OC)c2c3cc(ccc31)N1CCOC(CC(NC(=O)C(C(C)C)N(C)C(=O)C3(F)CCN(C(=O)C#CC(C)(C)N(C)C)CC3)C(=O)N3CCCC(N3)C(=O)OCC(C)(C)C2)C1, the IC50 (second compound 0.000949 µM) is reported as > 10 µM, the IC50 (second compound 0.003 µM) is reported as > 10 µM and the IC50 (second compound 0.00949 µM) is reported as > 10 µM. For the same compound, the IC50 (second compound 0.03 µM) was > 10 µM, the IC50 (second compound 0.0949 µM) was > 10 µM and the IC50 (second compound 0.3 µM) was > 10 µM. It also gave a viability, T/C [1] of 74.6%, a viability, T/C [2] of 75.4% and a viability, T/C [3] of 82.6%. The viability, T/C [4] was 71.6%, the viability, T/C [5] was 71.9% and the viability, T/C [6] was 85.5%. It also gave a viability, T/C [7] of 83.4%, a viability, T/C [8] of 83.3% and a viability, T/C [9] of 75.5%. It also gave a viability, T/C [10] of 67%, a viability, T/C [11] of 75.8% and a viability, T/C [12] of 77.5%. It also gave a viability, T/C [13] of 70.3%, a viability, T/C [14] of 82.2% and a viability, T/C [15] of 67.6%. For the same compound, the viability, T/C [16] was 76.2%, the viability, T/C [17] was 72.3% and the viability, T/C [18] was 65.3%. The viability, T/C [19] was 68.9%, the viability, T/C [20] was 66.2% and the viability, T/C [21] was 64.1%. For the same compound, the viability, T/C [22] was 72%, the viability, T/C [23] was 76.2% and the viability, T/C [24] was 67.7%. The viability, T/C [25] was 78.6%, the viability, T/C [26] was 71.4% and the viability, T/C [27] was 73.5%. It also gave a viability, T/C [28] of 71.9%, a viability, T/C [29] of 72.1% and a viability, T/C [30] of 73.5%. The viability, T/C [31] was 83.8%, the viability, T/C [32] was 72.2% and the viability, T/C [33] was 87.3%. For the same compound, the viability, T/C [34] was 79.6%, the viability, T/C [35] was 70% and the viability, T/C [36] was 71.7%.

For `NC1c2ccccc2OC12CCN(c1cnc3c(N4CCCc5ncccc54)n[nH]c3n1)CC2` (stereo unspecified) + C=CC(=O)N1CCN(c2nc(OCC3CCCN3C)nc3c(F)c(-c4nc(N)cc(C)c4C(F)(F)F)c(Cl)cc23)C(C)C1, the IC50 (second compound 0.00316 µM) was > 10 µM, the IC50 (second compound 0.01 µM) was > 10 µM and the IC50 (second compound 0.0316 µM) was > 10 µM. The IC50 (second compound 0.1 µM) was > 10 µM, the IC50 (second compound 0.316 µM) was > 10 µM and the IC50 (second compound 1 µM) was > 10 µM. The viability, T/C (second compound 0.00316 µM, first compound 0.0316 µM) was 69.5%, the viability, T/C (second compound 0.00316 µM, first compound 0.1 µM) was 70.1% and the viability, T/C (second compound 0.00316 µM, first compound 0.316 µM) was 80.6%. For the same compound, the viability, T/C (second compound 0.00316 µM, first compound 1 µM) was 79.7%, the viability, T/C (second compound 0.00316 µM, first compound 3.16 µM) was 70.5% and the viability, T/C (second compound 0.00316 µM, first compound 10 µM) was 64.6%. For the same compound, the viability, T/C (second compound 0.01 µM, first compound 0.0316 µM) was 78.4%, the viability, T/C (second compound 0.01 µM, first compound 0.1 µM) was 75.2% and the viability, T/C (second compound 0.01 µM, first compound 0.316 µM) was 78.5%. For the same compound, the viability, T/C (second compound 0.01 µM, first compound 1 µM) was 89.3%, the viability, T/C (second compound 0.01 µM, first compound 3.16 µM) was 68.6% and the viability, T/C (second compound 0.01 µM, first compound 10 µM) was 69.9%. For the same compound, the viability, T/C (second compound 0.0316 µM, first compound 0.0316 µM) was 76.5%, the viability, T/C (second compound 0.0316 µM, first compound 0.1 µM) was 77.7% and the viability, T/C (second compound 0.0316 µM, first compound 0.316 µM) was 82.5%. For the same compound, the viability, T/C (second compound 0.0316 µM, first compound 1 µM) was 67.8%, the viability, T/C (second compound 0.0316 µM, first compound 3.16 µM) was 86.4% and the viability, T/C (second compound 0.0316 µM, first compound 10 µM) was 81.6%. It also gave a viability, T/C (second compound 0.1 µM, first compound 0.0316 µM) of 97.8%, a viability, T/C (second compound 0.1 µM, first compound 0.1 µM) of 75% and a viability, T/C (second compound 0.1 µM, first compound 0.316 µM) of 70.2%. The viability, T/C (second compound 0.1 µM, first compound 1 µM) was 83.2%, the viability, T/C (second compound 0.1 µM, first compound 3.16 µM) was 76.6% and the viability, T/C (second compound 0.1 µM, first compound 10 µM) was 73.3%. For the same compound, the viability, T/C (second compound 0.316 µM, first compound 0.0316 µM) was 86%, the viability, T/C (second compound 0.316 µM, first compound 0.1 µM) was 89.8% and the viability, T/C (second compound 0.316 µM, first compound 0.316 µM) was 84.8%. It also gave a viability, T/C (second compound 0.316 µM, first compound 1 µM) of 65.5%, a viability, T/C (second compound 0.316 µM, first compound 3.16 µM) of 88.2% and a viability, T/C (second compound 0.316 µM, first compound 10 µM) of 73.2%. For the same compound, the viability, T/C (second compound 1 µM, first compound 0.0316 µM) was 76.6%, the viability, T/C (second compound 1 µM, first compound 0.1 µM) was 67.2% and the viability, T/C (second compound 1 µM, first compound 0.316 µM) was 87.9%. The viability, T/C (second compound 1 µM, first compound 1 µM) was 72.9%, the viability, T/C (second compound 1 µM, first compound 3.16 µM) was 85% and the viability, T/C (second compound 1 µM, first compound 10 µM) was 66.3%.

`CC(C)NCC(C(=O)N1CCN(c2ncnc3c2C(C)CC3O)CC1)c1ccc(Cl)cc1` (stereo unspecified) + CCn1c(-c2cccnc2C(C)OC)c2c3cc(ccc31)N1CCOC(CC(NC(=O)C(C(C)C)N(C)C(=O)C3(F)CCN(C(=O)C#CC(C)(C)N(C)C)CC3)C(=O)N3CCCC(N3)C(=O)OCC(C)(C)C2)C1 gave an IC50 (second compound 0.000949 µM) of 0.953 µM, an IC50 (second compound 0.003 µM) of 1.24 µM and an IC50 (second compound 0.00949 µM) of 1.53 µM. It also gave an IC50 (second compound 0.03 µM) of 1.53 µM, an IC50 (second compound 0.0949 µM) of 1.16 µM and an IC50 (second compound 0.3 µM) of 0.996 µM. For the same compound, the viability, T/C [1] was 91%, the viability, T/C [2] was 110% and the viability, T/C [3] was 72.1%. The viability, T/C [4] was 53.1%, the viability, T/C [5] was 41.6% and the viability, T/C [6] was 34.6%. It also gave a viability, T/C [7] of 86.8%, a viability, T/C [8] of 99.8% and a viability, T/C [9] of 70.2%. For the same compound, the viability, T/C [10] was 54.3%, the viability, T/C [11] was 40.6% and the viability, T/C [12] was 32.9%. For the same compound, the viability, T/C [13] was 118%, the viability, T/C [14] was 94.4% and the viability, T/C [15] was 83.6%. The viability, T/C [16] was 48.2%, the viability, T/C [17] was 44.7% and the viability, T/C [18] was 30.6%. The viability, T/C [19] was 101%, the viability, T/C [20] was 85.1% and the viability, T/C [21] was 76.4%. The viability, T/C [22] was 53.5%, the viability, T/C [23] was 40.8% and the viability, T/C [24] was 31.2%. It also gave a viability, T/C [25] of 109%, a viability, T/C [26] of 81.7% and a viability, T/C [27] of 73.3%. It also gave a viability, T/C [28] of 47.3%, a viability, T/C [29] of 39.9% and a viability, T/C [30] of 36.5%. The viability, T/C [31] was 92%, the viability, T/C [32] was 85.7% and the viability, T/C [33] was 64.8%. For the same compound, the viability, T/C [34] was 49.9%, the viability, T/C [35] was 42.5% and the viability, T/C [36] was 34.2%.
